Data published in US6579989B1, “Sulphostin analogue and process for producing sulphostin and its analogue” (Zaidan Hojin Biseibutsu Kagaku Kenkyu Kai, priority 1999, dated 2003).

Molecular target: T1, dipeptidylpeptidase IV (Rattus norvegicus, UniProt P14740)
T1 construct: partially purified through ammonium sulfate fractionation of a homogenate obtained from a kidney of a rat; from tissue; host or cells: rat kidney homogenate
Experiment: Measurement of dipeptidylpeptidase IV inhibiting activity (glycyl prolyl β-naphthylamide substrate, absorbance at 525 nm)
Format: biochemical
Conditions: IC50 (dipeptidylpeptidase IV inhibition activity), enzyme partially purified from rat kidney homogenate; pH 7.2, 37° C., 1 hour
Method: Measurement of Dipeptidylpeptidase IV Inhibiting Activity
Water was added to a mixture of 0.025 ml of 3.2 mM glycyl prolyl β-naphthylamide (BACHEM, Switzerland), 0.1 ml of 0.1 M tris-maleic acid buffer solution (pH 7.2) and a compound shown in Table 1, so that a final volume was adjusted to 0.2 ml. The resulting mixed solution was warmed at 37° C. for 10 minutes, and 0.025 ml of a dipeptidylpeptidase IV solution partially purified through ammonium sulfate fractionation of a homogenate obtained from a kidney of a rat was added thereto. Then, the reaction was continued at 37° C. for 1 hour. […] At the same time, a blank test was conducted to measure absorbance (b) of the buffer solution containing no specimen. A dipeptidylpeptidase IV inhibition percent was calculated from the expression: [(b−a)/b]×100.

T1 sequence (P14740 whole entry): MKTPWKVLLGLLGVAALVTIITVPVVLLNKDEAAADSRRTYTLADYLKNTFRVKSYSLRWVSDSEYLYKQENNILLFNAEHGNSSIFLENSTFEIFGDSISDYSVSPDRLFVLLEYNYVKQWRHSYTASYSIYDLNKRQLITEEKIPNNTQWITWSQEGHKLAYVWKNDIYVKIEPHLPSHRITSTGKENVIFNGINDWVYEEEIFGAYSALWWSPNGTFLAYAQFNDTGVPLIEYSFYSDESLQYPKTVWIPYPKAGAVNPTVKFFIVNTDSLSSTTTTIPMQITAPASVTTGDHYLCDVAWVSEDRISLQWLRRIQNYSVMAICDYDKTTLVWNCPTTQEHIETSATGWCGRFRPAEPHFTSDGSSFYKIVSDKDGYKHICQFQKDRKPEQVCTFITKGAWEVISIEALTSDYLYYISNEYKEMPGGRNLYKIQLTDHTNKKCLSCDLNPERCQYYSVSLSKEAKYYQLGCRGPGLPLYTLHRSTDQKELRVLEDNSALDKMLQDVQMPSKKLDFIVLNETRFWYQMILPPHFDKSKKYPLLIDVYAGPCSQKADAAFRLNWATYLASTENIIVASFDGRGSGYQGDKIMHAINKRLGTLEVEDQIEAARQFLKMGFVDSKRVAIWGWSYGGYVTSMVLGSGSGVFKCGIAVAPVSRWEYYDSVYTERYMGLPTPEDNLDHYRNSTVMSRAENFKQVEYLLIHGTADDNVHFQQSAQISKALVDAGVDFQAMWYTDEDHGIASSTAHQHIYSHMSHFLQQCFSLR

## N[C@H]1CCN(P(N)(=O)NS(=O)(=O)O)C1=O (single isomer, unassigned) [Compound 20, 3(S)-Amino-1-((S*)-amino(sulfoamino)phosphinyl)-2-pyrrolidone]
  IC50: 1820 nM

## N[C@H]1CCN(P(N)(=O)NS(=O)(=O)O)C1=O (single isomer, unassigned) [Compound 21, 3(S)-Amino-1-((R*)-amino(sulfoamino)phosphinyl)-2-pyrrolidone]
  IC50: 15.1 nM
